In brackets after ≈: the same amount, converted by molar mass.
Experiments:
Cytochrome P450 2D6 = Cytochrome P450 2D6 (Homo sapiens, UniProt P10635); assay: Inhibition of human CYP2D6 using dextrometorphan as substrate by fluorescence based assay; assay type: ADME
Cytochrome P450 1A2 = target: T1, Cytochrome P450 1A2 (Homo sapiens, UniProt P05177); assay: Inhibition of human CYP1A2 using phenacetin as substrate by fluorescence based assay; assay type: ADME
T1 sequence (P05177 whole entry): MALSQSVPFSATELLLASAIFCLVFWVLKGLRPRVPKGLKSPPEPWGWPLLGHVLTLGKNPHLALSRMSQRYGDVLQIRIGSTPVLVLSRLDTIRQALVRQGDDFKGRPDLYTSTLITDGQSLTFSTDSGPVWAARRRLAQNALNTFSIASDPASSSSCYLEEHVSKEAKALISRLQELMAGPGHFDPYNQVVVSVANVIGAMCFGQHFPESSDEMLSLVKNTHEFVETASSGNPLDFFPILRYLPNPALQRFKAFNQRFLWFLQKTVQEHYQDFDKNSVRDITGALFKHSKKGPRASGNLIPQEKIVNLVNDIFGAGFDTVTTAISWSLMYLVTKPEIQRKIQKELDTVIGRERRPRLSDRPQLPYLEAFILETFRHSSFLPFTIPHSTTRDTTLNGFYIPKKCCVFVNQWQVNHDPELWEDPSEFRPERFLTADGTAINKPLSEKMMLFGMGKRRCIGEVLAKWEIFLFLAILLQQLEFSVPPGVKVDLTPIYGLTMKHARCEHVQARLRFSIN

[1] = Drug concentration in Swiss mouse plasma at 2.5 mg/kg, iv measured at 5 mins post-dose; assay type: ADME, organism-based
[2] = Inhibition of human PSEN1/APH1A expressed in MEF cells with Psen1/2 double knockout/Aph1ABC triple knockout by ELISA; assay type: cell-based
[3] = Inhibition of human PSEN2/APH1A expressed in MEF cells with Psen1/2 double knockout/Aph1ABC triple knockout by ELISA; assay type: cell-based
[4] = Half life in CD-1 mouse at 30 mg/kg, po measured at 4 hrs post-dose; assay type: ADME, organism-based; conditions: in vivo
human MDR1 [5] = assay: Apparent permeability across apical to basal side in MDCK cells transfected with human MDR1 at 5 uM by LC-MS/MS analysis; assay type: ADME, cell-based, Canis lupus familiaris; conditions: dog
[6] = Free fraction in rat brain homogenate at 5 uM incubated for 5 hrs by HPLC-MS/MS analysis; assay type: ADME, tissue-based
[7] = Tmax in CD-1 mouse at 30 mg/kg, po measured at 4 hrs post-dose; assay type: ADME, organism-based; conditions: in vivo
[8] = Kinetic solubility of compound at pH 4; assay type: physicochemical; conditions: buffer, read-out: Kinetic_solubility
[9] = Kinetic solubility of compound at pH 2; assay type: physicochemical; conditions: buffer, read-out: Kinetic_solubility
[10] = AUC (0 to infinity) in CD-1 mouse at 30 mg/kg, po measured at 4 hrs post-dose; assay type: ADME, organism-based; conditions: in vivo
[11] = Inhibition of human PSEN2/APH1B expressed in MEF cells with Psen1/2 double knockout/Aph1ABC triple knockout by ELISA; assay type: cell-based
[12] = Volume of distribution at steady state in CD-1 mouse at 30 mg/kg, po measured at 4 hrs post-dose; assay type: ADME, organism-based; conditions: in vivo
human MDR1 [13] = assay: Efflux ratio of apparent permeability basal to apical side over apical to basal side in MDCK cells transfected with human MDR1 at 5 uM by LC-MS/MS analysis; assay type: ADME, cell-based, Canis lupus familiaris; conditions: dog
[14] = Ratio of unbound drug concentration in brain to plasma in Swiss mouse at 2.5 mg/kg, iv measured at 5 mins post-dose; assay type: ADME, organism-based; conditions: read-out: K(p,uu,brain)
[15] = Inhibition of human PSEN1/APH1B expressed in MEF cells with Psen1/2 double knockout/Aph1ABC triple knockout by ELISA; assay type: cell-based
[16] = Kinetic solubility of compound at pH 7.4; assay type: physicochemical; conditions: buffer, read-out: Kinetic_solubility
[17] = AUClast in CD-1 mouse at 30 mg/kg, po measured at 4 hrs post-dose; assay type: ADME, organism-based; conditions: in vivo
[18] = target: Voltage-gated inwardly rectifying potassium channel KCNH2 (Homo sapiens, UniProt Q12809); assay: Inhibition of hERG; assay type: toxicity
Sequence of Voltage-gated inwardly rectifying potassium channel KCNH2 (Q12809 whole entry): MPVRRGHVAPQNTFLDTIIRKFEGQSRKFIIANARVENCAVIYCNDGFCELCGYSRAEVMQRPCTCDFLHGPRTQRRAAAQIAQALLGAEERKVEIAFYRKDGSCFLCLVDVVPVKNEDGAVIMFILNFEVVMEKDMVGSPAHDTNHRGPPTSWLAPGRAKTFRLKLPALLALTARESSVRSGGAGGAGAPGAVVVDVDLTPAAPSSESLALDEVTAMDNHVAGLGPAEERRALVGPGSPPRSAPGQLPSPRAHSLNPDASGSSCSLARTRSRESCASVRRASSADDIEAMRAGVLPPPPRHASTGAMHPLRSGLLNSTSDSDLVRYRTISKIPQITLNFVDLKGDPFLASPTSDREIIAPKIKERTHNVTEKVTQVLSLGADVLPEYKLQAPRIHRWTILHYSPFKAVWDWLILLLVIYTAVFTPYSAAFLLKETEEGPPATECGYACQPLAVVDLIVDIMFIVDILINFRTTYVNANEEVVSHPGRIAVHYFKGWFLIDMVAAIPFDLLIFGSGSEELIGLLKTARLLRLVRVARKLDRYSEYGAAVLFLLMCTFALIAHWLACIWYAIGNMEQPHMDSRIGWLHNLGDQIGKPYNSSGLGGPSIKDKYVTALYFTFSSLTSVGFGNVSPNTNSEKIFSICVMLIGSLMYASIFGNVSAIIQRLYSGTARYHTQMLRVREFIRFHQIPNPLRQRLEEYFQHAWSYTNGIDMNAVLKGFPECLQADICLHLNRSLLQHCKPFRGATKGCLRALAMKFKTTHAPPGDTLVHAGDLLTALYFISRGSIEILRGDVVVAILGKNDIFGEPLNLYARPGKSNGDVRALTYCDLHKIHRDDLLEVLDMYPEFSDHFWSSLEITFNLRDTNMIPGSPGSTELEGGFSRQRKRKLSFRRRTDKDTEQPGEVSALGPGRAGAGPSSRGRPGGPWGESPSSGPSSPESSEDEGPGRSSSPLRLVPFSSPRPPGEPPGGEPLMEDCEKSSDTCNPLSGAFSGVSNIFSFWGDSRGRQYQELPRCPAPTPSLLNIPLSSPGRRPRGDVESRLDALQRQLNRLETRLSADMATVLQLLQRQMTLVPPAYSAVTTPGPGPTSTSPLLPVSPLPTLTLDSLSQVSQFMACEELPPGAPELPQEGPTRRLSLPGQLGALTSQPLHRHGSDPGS

[19] = Unbound drug concentration in Swiss mouse plasma at 2.5 mg/kg, iv measured at 5 mins post-dose; assay type: ADME, organism-based; conditions: in vivo
[20] = Drug concentration in Swiss mouse brain at 2.5 mg/kg, iv measured at 5 mins post-dose; assay type: ADME, organism-based; conditions: read-out: Ct
Cytochrome P450 2C9 = Cytochrome P450 2C9 (Homo sapiens, UniProt P11712); assay: Inhibition of human CYP2C9 using tolbutamide as substrate by fluorescence based assay; assay type: ADME
Sequence of Cytochrome P450 2C9 (P11712 whole entry): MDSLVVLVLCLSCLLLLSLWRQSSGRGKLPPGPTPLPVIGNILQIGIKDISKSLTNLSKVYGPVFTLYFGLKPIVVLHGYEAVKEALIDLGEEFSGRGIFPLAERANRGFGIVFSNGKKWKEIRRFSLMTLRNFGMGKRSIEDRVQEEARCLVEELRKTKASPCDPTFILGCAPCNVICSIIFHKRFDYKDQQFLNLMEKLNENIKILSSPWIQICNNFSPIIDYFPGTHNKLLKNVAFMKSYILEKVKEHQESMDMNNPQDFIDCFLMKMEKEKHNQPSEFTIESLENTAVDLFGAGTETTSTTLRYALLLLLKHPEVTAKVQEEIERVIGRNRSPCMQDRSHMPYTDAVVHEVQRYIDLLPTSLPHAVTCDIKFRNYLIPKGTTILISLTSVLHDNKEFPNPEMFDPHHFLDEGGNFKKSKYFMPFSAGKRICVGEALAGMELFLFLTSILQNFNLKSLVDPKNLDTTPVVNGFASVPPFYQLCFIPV

Cytochrome P450 2C19 = Cytochrome P450 2C19 (Homo sapiens, UniProt P33261); assay: Inhibition of human CYP2C19 using S-mephenytoin as substrate by fluorescence based assay; assay type: ADME
Sequence of Cytochrome P450 2C19 (P33261 whole entry): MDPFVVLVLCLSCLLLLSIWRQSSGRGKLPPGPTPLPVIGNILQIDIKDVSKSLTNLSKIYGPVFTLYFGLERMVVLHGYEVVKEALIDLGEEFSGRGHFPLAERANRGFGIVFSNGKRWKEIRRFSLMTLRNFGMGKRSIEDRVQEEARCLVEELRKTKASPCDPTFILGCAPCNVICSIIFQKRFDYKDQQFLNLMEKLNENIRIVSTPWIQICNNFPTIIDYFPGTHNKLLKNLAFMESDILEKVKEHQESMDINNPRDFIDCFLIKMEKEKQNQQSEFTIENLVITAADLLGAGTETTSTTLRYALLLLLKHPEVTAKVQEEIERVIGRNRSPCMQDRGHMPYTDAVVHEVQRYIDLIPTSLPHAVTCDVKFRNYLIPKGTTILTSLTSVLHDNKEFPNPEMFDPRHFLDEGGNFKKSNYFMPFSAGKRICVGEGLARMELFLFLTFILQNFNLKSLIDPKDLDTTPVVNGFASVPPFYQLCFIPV

[21] = MRT in CD-1 mouse at 30 mg/kg, po measured at 4 hrs post-dose; assay type: ADME, organism-based; conditions: in vivo
[22] = Protein binding in mouse plasma assessed as free fraction at 5 uM incubated for 4.5 hrs by HPLC analysis; assay type: ADME, cell-free
calcium channel = assay: Inhibition of rat calcium channel; assay type: toxicity
[23] = Ratio of drug concentration in brain to plasma of Swiss mouse at 2.5 mg/kg, iv measured at 5 mins post-dose; assay type: ADME, organism-based; conditions: read-out: BPR
Cytochrome P450 2C8 = target: T2, Cytochrome P450 2C8 (Homo sapiens, UniProt P10632); assay: Inhibition of human CYP2C8 using amodiaquine as substrate by fluorescence based assay; assay type: ADME
T2 sequence (P10632 whole entry): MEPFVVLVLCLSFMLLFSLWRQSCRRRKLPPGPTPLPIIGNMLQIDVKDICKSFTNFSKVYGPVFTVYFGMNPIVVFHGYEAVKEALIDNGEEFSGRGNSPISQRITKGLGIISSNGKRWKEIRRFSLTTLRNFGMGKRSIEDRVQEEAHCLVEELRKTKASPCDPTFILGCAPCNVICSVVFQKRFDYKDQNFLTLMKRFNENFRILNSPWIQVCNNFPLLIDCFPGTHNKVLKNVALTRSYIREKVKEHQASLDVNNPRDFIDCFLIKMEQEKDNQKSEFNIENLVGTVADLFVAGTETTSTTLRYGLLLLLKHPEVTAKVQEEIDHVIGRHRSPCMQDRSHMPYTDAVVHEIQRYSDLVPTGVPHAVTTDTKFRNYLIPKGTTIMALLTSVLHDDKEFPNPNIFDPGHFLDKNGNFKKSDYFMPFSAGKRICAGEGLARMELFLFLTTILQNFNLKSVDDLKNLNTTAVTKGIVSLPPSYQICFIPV

Cytochrome P450 3A4 = Cytochrome P450 3A4 (Homo sapiens, UniProt P08684); assay: Inhibition of human CYP3A4 using midazolam as substrate by fluorescence based assay; assay type: ADME
Sequence of Cytochrome P450 3A4 (P08684 whole entry): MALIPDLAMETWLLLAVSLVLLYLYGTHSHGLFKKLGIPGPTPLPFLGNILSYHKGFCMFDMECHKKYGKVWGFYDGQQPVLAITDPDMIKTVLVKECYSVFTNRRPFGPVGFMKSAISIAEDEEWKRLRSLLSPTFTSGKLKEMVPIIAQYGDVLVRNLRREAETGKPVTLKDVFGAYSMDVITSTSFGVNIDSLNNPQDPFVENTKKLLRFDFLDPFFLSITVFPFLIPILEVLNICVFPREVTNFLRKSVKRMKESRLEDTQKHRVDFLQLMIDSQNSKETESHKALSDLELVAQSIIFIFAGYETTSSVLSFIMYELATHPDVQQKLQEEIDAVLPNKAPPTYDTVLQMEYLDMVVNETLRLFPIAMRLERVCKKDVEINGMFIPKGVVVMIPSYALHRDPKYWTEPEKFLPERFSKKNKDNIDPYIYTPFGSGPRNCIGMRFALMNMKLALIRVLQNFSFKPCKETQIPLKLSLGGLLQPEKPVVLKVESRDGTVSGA

sodium channel = assay: Inhibition of rat sodium channel; assay type: toxicity

Sequence of Cytochrome P450 2D6 (P10635 whole entry): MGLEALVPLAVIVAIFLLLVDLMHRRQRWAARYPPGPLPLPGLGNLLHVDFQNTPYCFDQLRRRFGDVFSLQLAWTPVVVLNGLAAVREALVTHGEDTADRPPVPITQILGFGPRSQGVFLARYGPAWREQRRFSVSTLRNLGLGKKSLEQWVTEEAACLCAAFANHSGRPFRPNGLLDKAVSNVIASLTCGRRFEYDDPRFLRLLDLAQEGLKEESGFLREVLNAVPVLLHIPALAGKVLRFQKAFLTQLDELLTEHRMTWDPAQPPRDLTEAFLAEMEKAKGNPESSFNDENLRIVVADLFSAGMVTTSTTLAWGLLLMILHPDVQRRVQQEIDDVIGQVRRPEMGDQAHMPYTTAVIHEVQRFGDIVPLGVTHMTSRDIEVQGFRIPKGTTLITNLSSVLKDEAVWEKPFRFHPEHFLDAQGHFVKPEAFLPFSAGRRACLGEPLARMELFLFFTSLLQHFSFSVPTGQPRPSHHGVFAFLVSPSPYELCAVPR

With `O=S(=O)(c1ccc(Cl)cc1)N1[C@H]2CC[C@@H]([C@H]1c1ccc(C(F)(F)F)cc1)[C@@H](O)C2` the IC50 (Cytochrome P450 2D6) was greater than 10 µM, the IC50 (Cytochrome P450 1A2) was greater than 10 µM and the concentration at 5 min [1] was 680 ng/mL. The IC50 [2] was 0.019 µM, the IC50 [3] was 1.95 µM and the half-life [4] was 28.9 min. For the same compound, the Papp A→B at 5 µM (human MDR1 [5]) was 6.3 ×10⁻⁶ cm/s, the fraction unbound at 5 h, 5 µM [6] was 0.00115 and the Tmax [7] was 120 min. For the same compound, the solubility kinetic [8] was 12 µM (≈ 5.35 µg/mL), the solubility kinetic [9] was 13 µM (≈ 5.8 µg/mL) and the AUC [10] was 174 ng·h/mL. It also gave an IC50 [11] of 2.14 µM, a Vdss [12] of 3.43 L/kg and an efflux ratio at 5 µM (human MDR1 [13]) of 1.95. It also gave a Kp uu at 5 min [14] of 1.97, an IC50 [15] of 0.0055 µM and a solubility kinetic [16] of 18 µM (≈ 8.03 µg/mL). The AUC(0-t) at 4 h [17] was 163 ng·h/mL, the IC50 [18] was greater than 10 µM and the “Cp(f)” value [19] was 2.1 ng/mL. For the same compound, the concentration at 5 min [20] was 3620 ng/g, the IC50 (Cytochrome P450 2C9) was greater than 10 µM and the IC50 (Cytochrome P450 2C19) was greater than 10 µM. It also gave an MRT [21] of 27.2 min, a fraction unbound at 4.5 h, 5 µM [22] of 0.00309 and an IC50 (calcium channel) greater than 10 µM. For the same compound, the Kp at 5 min [23] was 5.4, the IC50 (Cytochrome P450 2C8) was greater than 10 µM and the IC50 (Cytochrome P450 3A4) was 3 µM. For the same compound, the IC50 (sodium channel) was greater than 10 µM.

Reference: ChEMBL document CHEMBL5625242, “Discovery of brain permeable 2-Azabicyclo[2.2.2]octane sulfonamides as a novel class of presenilin-1 selective γ-secretase inhibitors” (Eur J Med Chem, 2023)
